# According to patent US20250092065A1, “2-(INDAZOL-5-YL)-6-(PIPERIDIN-4-YL)-1,7-NAPHTHYRIDINE DERIVATIVES AND RELATED COMPOUNDS AS MODULATORS FOR SPLICING NUCLEIC ACIDS AND FOR THE TREATMENT OF PROLIFERATIVE DISEASES” (REMIX THERAPEUTICS INC., priority 2022, published 2025):
# Where two headings read alike, the source gives them in different places.
# Assays:
# HTT mRNA = assay: RT-qPCR splicing assay, HTT mRNA canonical (CJ) and alternative (AJ) junction; format: cell-based, human; details: Homo sapiens; for AC50: HTT alternative junction mRNA, read-out: HTT AJ (increase in AJ mRNA, AC50)
# In short: (§1)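 Both isoforms, CJ and AJ, read by qPCR from crude lysates of treated A673 or K562 cells; 24 h, 37 °C, maximum 10 uM. Normalization: housekeeper ΔCt, then DMSO ΔΔCt.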
# MYB mRNA = assay: RT-qPCR splicing assay, MYB mRNA canonical (CJ) and alternative (AJ) junction; format: cell-based, human; details: Homo sapiens; for AC50: MYB alternative junction mRNA, read-out: MYB AJ (increase in AJ mRNA, AC50)
# In short: as §1
# Target C = assay: RT-qPCR canonical junction panel assay, Target C mRNA; format: cell-based; details: Table 4, read-out: Target C IC50 (decrease in CJ mRNA levels)
# In short: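 IC50 is the concentration giving 50% CJ decrease, from a 4-parameter logistic fit of percent response; response derived from ΔΔCt against housekeeper and DMSO over a fixed ΔCt window, with canonical exon-junction qPCR in compound-treated K562 or A673 cells.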
# [1] = HTT canonical junction mRNA, RT-qPCR, read-out: HTT CJ (decrease in CJ mRNA levels, IC50)
# [2] = canonical junction qPCR panel, Table 4, read-out: HTT IC50 (decrease in CJ mRNA levels)
# [3] = MYB canonical junction mRNA, RT-qPCR, read-out: MYB CJ (decrease in CJ mRNA levels, IC50)
# [4] = canonical junction qPCR panel, Table 4, read-out: MYB IC50 (decrease in CJ mRNA levels)
Structure (SMILES),IC50 (HTT mRNA; [1]),IC50 (HTT mRNA; [2]),IC50 (MYB mRNA; [3]),IC50 (MYB mRNA; [4]),IC50 (Target C),AC50 (HTT mRNA; RT-qPCR),AC50 (MYB mRNA; RT-qPCR)
"Cc1c(O)c(-c2nc(C(=O)NC(C)C)c3cc(N4C[C@@H](C)N[C@@H](C)C4)ccc3n2)cc2cn(C)nc12 [Compound 539, 6-[(3R,5S)-3,5-dimethylpiperazin-1-yl]-2-(6-hydroxy-2,7-dimethylindazol-5-yl)-N-isopropylquinazoline-4-carboxamide]",< 100 nM,< 100 nM,< 100 nM,< 100 nM,100 to 1000 nM,< 100 nM,< 100 nM
Cc1c(O)c(-c2nc(C(=O)NC3CCC3)c3cc(N4C[C@@H](C)N[C@@H](C)C4)ccc3n2)cc2cn(C)nc12 [Compound 540],1000 to 10000 nM,1000 to 10000 nM,< 100 nM,< 100 nM,> 10000 nM,100 to 1000 nM,< 100 nM
"Cc1c(O)c(-c2nc(-c3nn[nH]n3)c3cc(N4CCNCC4)ccc3n2)cc2cn(C)nc12 [Compound 541, 2,7-dimethyl-5-[6-(piperazin-1-yl)-4-(2H-1,2,3,4-tetrazol-5-yl)quinazolin-2-yl]indazol-6-ol]",1000 to 10000 nM,1000 to 10000 nM,1000 to 10000 nM,1000 to 10000 nM,1000 to 10000 nM,1000 to 10000 nM,1000 to 10000 nM
"C[C@@H]1CN(c2ccc3nc(-c4cc5cn(C)nc5c(F)c4O)nc(C4CC4)c3c2)C[C@H](C)N1 [Compound 542, 5-{4-cyclopropyl-6-[(3R,5S)-3,5-dimethylpiperazin-1-yl]quinazolin-2-yl}-7-fluoro-2-methylindazol-6-ol]",1000 to 10000 nM,1000 to 10000 nM,< 100 nM,< 100 nM,> 10000 nM,1000 to 10000 nM,< 100 nM
"Cc1cn2cc(-c3ccc4cc(N5C[C@@H](C)N[C@@H](C)C5)cc(F)c4n3)cc(F)c2n1 [Compound 544, 6-[(3R,5S)-3,5-dimethylpiperazin-1-yl]-8-fluoro-2-{8-fluoro-2-methylimidazo[1,2-a]pyridin-6-yl}quinoline]",100 to 1000 nM,100 to 1000 nM,100 to 1000 nM,100 to 1000 nM,1000 to 10000 nM,100 to 1000 nM,100 to 1000 nM
"Cc1c(O)c(-c2ncc3cc(N4C[C@H](C)N[C@@H](C)C4)ccc3n2)cc2cn(C)nc12 [Compound 660, 5-{6-[(3S,5S)-3,5-dimethylpiperazin-1-yl]quinazolin-2-yl}-2,7-dimethylindazol-6-ol]",100 to 1000 nM,100 to 1000 nM,< 100 nM,< 100 nM,1000 to 10000 nM,100 to 1000 nM,< 100 nM
"C[C@@H]1CN(c2ccc3nc(-c4cc5cn(C)nc5c(F)c4O)nc(C#N)c3c2)C[C@H](C)N1 [Compound 707, 6-[(3R,5S)-3,5-dimethylpiperazin-1-yl]-2-(7-fluoro-6-hydroxy-2-methylindazol-5-yl) quinazoline-4-carbonitrile]",100 to 1000 nM,100 to 1000 nM,< 100 nM,< 100 nM,100 to 1000 nM,100 to 1000 nM,< 100 nM
"Cc1cc(N2C[C@@H](C)N[C@@H](C)C2)cc2c(Cl)cc(-c3cc4cn(C)nc4c(F)c3O)nc12 [Compound 723, 5-{4-chloro-6-[(3R,5S)-3,5-dimethylpiperazin-1-yl]-8-methylquinolin-2-yl}-7-fluoro-2-methylindazol-6-ol]",< 100 nM,< 100 nM,< 100 nM,< 100 nM,100 to 1000 nM,100 to 1000 nM,< 100 nM
"C[C@@H]1CN(c2ccc3nc(-c4cc5cn(C)nc5c(F)c4O)nc(-c4nccs4)c3c2)C[C@H](C)N1 [Compound 732, 5-{6-[(3R,5S)-3,5-dimethylpiperazin-1-yl]-4-(1,3-thiazol-2-yl)quinazolin-2-yl}-7-fluoro-2-methylindazol-6-ol]",> 10000 nM,> 10000 nM,1000 to 10000 nM,1000 to 10000 nM,> 10000 nM,> 10000 nM,> 10000 nM
"C[C@@H]1CN(c2ccc3nc(-c4cc5cn(C)nc5c(F)c4O)nc(C(=O)NCCO)c3c2)C[C@H](C)N1 [Compound 737, 6-[(3R,5S)-3,5-dimethylpiperazin-1-yl]-2-(7-fluoro-6-hydroxy-2-methylindazol-5-yl)-N-(2-hydroxyethyl)quinazoline-4-carboxamide]",1000 to 10000 nM,1000 to 10000 nM,100 to 1000 nM,100 to 1000 nM,1000 to 10000 nM,1000 to 10000 nM,100 to 1000 nM
"C[C@@H]1CN(c2ccc3nc(-c4cc5cn(C)nc5c(F)c4O)ncc3c2)C[C@H](C)N1 [Compound 743, 5-{6-[(3R,5S)-3,5-dimethylpiperazin-1-yl]quinazolin-2-yl}-7-fluoro-2-methylindazol-6-ol]",> 10000 nM,> 10000 nM,1000 to 10000 nM,1000 to 10000 nM,1000 to 10000 nM,1000 to 10000 nM,> 10000 nM

# The next lines start with results.
IC50 (HTT mRNA; [1]),IC50 (HTT mRNA; [2]),IC50 (MYB mRNA; [3]),IC50 (MYB mRNA; [4]),IC50 (Target C),Structure (SMILES),AC50 (HTT mRNA; RT-qPCR),AC50 (MYB mRNA; RT-qPCR)
< 100 nM,< 100 nM,< 100 nM,< 100 nM,100 to 1000 nM,"CN[C@@H]1CCN(c2ccc3nc(-c4cc5cn(C)nc5c(F)c4O)nc(C4CC4)c3c2)C1 [Compound 543, 5-{4-cyclopropyl-6-[(3R)-3-(methylamino)pyrrolidin-1-yl]quinazolin-2-yl}-7-fluoro-2-methylindazol-6-ol]",< 100 nM,< 100 nM
100 to 1000 nM,100 to 1000 nM,< 100 nM,< 100 nM,> 10000 nM,"CNC(=O)c1nc(-c2cc3cn(C)nc3c(C)c2O)nc2ccc(N3C[C@H](C)N[C@@H](C)C3)cc12 [Compound 652, 6-[(3S,5S)-3,5-dimethylpiperazin-1-yl]-2-(6-hydroxy-2,7-dimethylindazol-5-yl)-N-methylquinazoline-4-carboxamide]",100 to 1000 nM,< 100 nM
100 to 1000 nM,100 to 1000 nM,< 100 nM,< 100 nM,> 10000 nM,CNC(=O)c1nc(-c2cc3cn(C)nc3c(C)c2O)nc2ccc(N3CCC(N4CCC4)CC3)cc12 [Compound 706],1000 to 10000 nM,< 100 nM
1000 to 10000 nM,1000 to 10000 nM,< 100 nM,< 100 nM,> 10000 nM,"C[C@@H]1CN(c2ccc3nc(-c4cc5cn(C)nc5c(F)c4O)nc(C(N)=O)c3c2)C[C@H](C)N1 [Compound 712, 6-[(3R,5S)-3,5-dimethylpiperazin-1-yl]-2-(7-fluoro-6-hydroxy-2-methylindazol-5-yl) quinazoline-4-carboxamide]",1000 to 10000 nM,< 100 nM
100 to 1000 nM,100 to 1000 nM,< 100 nM,< 100 nM,100 to 1000 nM,"CC(=O)c1nc(-c2cc3cn(C)nc3c(F)c2O)nc2ccc(N3C[C@@H](C)N[C@@H](C)C3)cc12 [Compound 717, 1-{6-[(3R,5S)-3,5-dimethylpiperazin-1-yl]-2-(7-fluoro-6-hydroxy-2-methylindazol-5-yl)quinazolin-4-yl}ethanone]",100 to 1000 nM,< 100 nM
< 100 nM,< 100 nM,< 100 nM,< 100 nM,100 to 1000 nM,"CNC(=O)c1nc(-c2cc3cn(C)nc3c(F)c2O)nc2ccc(N3CCC(N4CCC4)CC3)cc12 [Compound 722, 6-[4-(azetidin-1-yl)piperidin-1-yl]-2-(7-fluoro-6-hydroxy-2-methylindazol-5-yl)-N-methylquinazoline-4-carboxamide]",100 to 1000 nM,< 100 nM
100 to 1000 nM,100 to 1000 nM,< 100 nM,< 100 nM,1000 to 10000 nM,"CNC(=O)c1nc(-c2cc3cn(C)nc3c(F)c2O)nc2ccc(N3CCNC4(CC4)C3)cc12 [Compound 728, 6-{4,7-diazaspiro[2.5]octan-7-yl}-2-(7-fluoro-6-hydroxy-2-methylindazol-5-yl)-N-methylquinazoline-4-carboxamide]",100 to 1000 nM,< 100 nM
< 100 nM,< 100 nM,< 100 nM,< 100 nM,< 100 nM,"CNC(=O)c1nc(-c2cc3cn(C)nc3c(F)c2O)nc2ccc(N3CC[C@@H](NC)C3)cc12 [Compound 729, 2-(7-fluoro-6-hydroxy-2-methylindazol-5-yl)-N-methyl-6-[(3R)-3-(methylamino)pyrrolidin-1-yl]quinazoline-4-carboxamide]",< 100 nM,< 100 nM
100 to 1000 nM,100 to 1000 nM,100 to 1000 nM,100 to 1000 nM,> 10000 nM,"CNC(=O)c1nc(-c2cc3cn(C)nc3cc2O)nc2ccc(N3CCC(N(C)C)CC3)cc12 [Compound 742, 6-[4-(dimethylamino)piperidin-1-yl]-2-(6-hydroxy-2-methylindazol-5-yl)-N-methylquinazoline-4-carboxamide]",> 10000 nM,100 to 1000 nM
